From the supplement of paper PMC10307832

Assays:
Assay in all cases: relative viability (nuclei count vs DMSO), 5 days (fraction); higher = more cells survive
BI-D1870 = compound: CC(C)CCN1c2nc(Nc3cc(F)c(O)c(F)c3)ncc2N(C)C(=O)C1C [BI-D1870]
In short: (§1)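 Viability here means nuclei in treated wells divided by nuclei in vehicle wells, reported as the median across plates. Only plates with control CV below 25% and at least one doubling passed. Lung cancer cell lines in 1536-well plates were exposed to five √10-spaced library-drug doses for 5 days and counted from 4× Hoechst images in MetaXpress.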

Zebularine = compound: O=c1ncccn1[C@@H]1O[C@H](CO)[C@@H](O)[C@H]1O [Zebularine]
In short: as §1

BI-D1870 + Navitoclax = compound: CC(C)CCN1c2nc(Nc3cc(F)c(O)c(F)c3)ncc2N(C)C(=O)C1C [BI-D1870] + CC1(C)CCC(c2ccc(Cl)cc2)=C(CN2CCN(c3ccc(C(=O)NS(=O)(=O)c4ccc(N[C@H](CCN5CCOCC5)CSc5ccccc5)c(S(=O)(=O)C(F)(F)F)c4)cc3)CC2)C1 [Navitoclax] (partner 0.5 µM)
In short: (§2)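 Lung cancer cell lines were seeded in 1536-well plates and dosed by pin tool the next day, with either a single drug or a fixed anchor-drug dose combined with five library-drug doses (not always all listed) spaced in √10 steps. Five days later, one step fixed the cells and stained their nuclei (final 0.05% Triton X-100, 1% formaldehyde, 1 ug/ml Hoechst), and nuclei were counted on 4× images. Relative viability is the nuclei count in treated wells divided by the count in vehicle wells, and each value is the median of duplicate plates.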

Zebularine + Phenformin = compound: O=c1ncccn1[C@@H]1O[C@H](CO)[C@@H](O)[C@H]1O [Zebularine] + N=C(N)NC(=N)NCCc1ccccc1 [Phenformin] (partner 250 µM)
In short: as §2

Cell Line | relative viability (BI-D1870; 0.04 µM) | relative viability (BI-D1870; 0.1265 µM) | relative viability (BI-D1870; 0.4 µM) | relative viability (BI-D1870; 1.265 µM) | relative viability (BI-D1870; 4 µM) | relative viability (Zebularine; 1 µM) | relative viability (Zebularine; 3.162 µM) | relative viability (Zebularine; 10 µM) | relative viability (Zebularine; 31.62 µM) | relative viability (Zebularine; 100 µM) | relative viability (BI-D1870 + Navitoclax; first compound 0.04 µM) | relative viability (BI-D1870 + Navitoclax; first compound 0.1265 µM) | relative viability (BI-D1870 + Navitoclax; first compound 0.4 µM) | relative viability (BI-D1870 + Navitoclax; first compound 1.265 µM) | relative viability (BI-D1870 + Navitoclax; first compound 4 µM) | relative viability (Zebularine + Phenformin; first compound 1 µM) | relative viability (Zebularine + Phenformin; first compound 3.162 µM) | relative viability (Zebularine + Phenformin; first compound 10 µM) | relative viability (Zebularine + Phenformin; first compound 31.62 µM) | relative viability (Zebularine + Phenformin; first compound 100 µM)
BEN | 1.03 | 0.915 | 1.05 | 1.07 | 0.845 | 0.913 | 0.788 | 0.45 | 0.378 | 0.333 | 0.0563 | 0.0674 | 0.0746 | 0.383 | 0.0789 | 0.285 | 0.242 | 0.276 | 0.251 | 0.202
EMC-BAC-2 | 1.1 | 1.01 | 0.891 | 1.01 | 0.904 | 1.07 | 0.994 | 0.775 | 0.981 | 1.06 | 1.24 | 1.06 | 1.09 | 1.21 | 1.18 | 0.656 | 0.569 | 0.334 | 0.662 | 0.516
LU99A | 1.01 | 0.822 | 0.98 | 0.827 | 0.77 | 1.06 | 0.997 | 0.883 | 0.689 | 0.246 | 0.805 | 0.744 | 0.798 | 0.961 | 0.911 | 0.856 | 0.831 | 0.551 | 0.558 | 0.208
NCI-H2170 | 1.06 | 0.925 | 0.961 | 0.949 | 0.843 | 1.1 | 1.01 | 0.933 | 0.975 | 0.693 | 0.608 | 0.524 | 0.578 | 0.514 | 0.496 | 0.422 | 0.424 | 0.376 | 0.41 | 0.243
NCI-H2347 | 1.14 | 1.02 | 0.964 | 1.06 | 0.894 | 1.11 | 1.05 | 0.753 | 0.583 | 0.489 | 0.778 | 0.914 | 0.617 | 0.975 | 0.54 | 0.583 | 0.38 | 0.297 | 0.233 | 0.293
NCI-H1993 | 1.03 | 0.876 | 0.827 | 1.15 | 0.702 | 1.18 | 0.945 | 0.736 | 0.963 | 0.774 | 0.91 | 0.888 | 0.988 | 1.07 | 0.73 | 0.556 | 0.477 | 0.534 | 0.449 | 0.548
NCI-H322M | 0.964 | 0.907 | 0.82 | 0.728 | 0.748 | 0.98 | 0.928 | 0.784 | 0.888 | 0.673 | 1.22 | 1.19 | 1.44 | 1.06 | 1.07 | 0.816 | 0.747 | 0.568 | 0.73 | 0.671
NCI-H838 | 0.962 | 0.892 | 0.958 | 1.07 | 0.992 | 1.05 | 0.962 | 0.753 | 0.692 | 0.352 | 1.28 | 1.04 | 1.12 | 1.29 | 1.21 | 0.695 | 0.668 | 0.549 | 0.509 | 0.285
HARA | 1.03 | 0.905 | 0.932 | 1.27 | 0.804 | 1.09 | 1.13 |  | 1.06 | 0.897 | 1.2 | 1.13 | 1.16 | 1.23 | 1.08 | 0.506 |  |  | 0.436 | 0.272
NCI-H2087 | 1.13 | 0.977 | 1.15 | 1.21 | 0.78 | 1.04 | 0.949 | 0.747 | 0.894 | 0.381 | 1.14 | 1.01 | 1.06 | 1.09 | 0.802 | 0.524 | 0.448 | 0.272 | 0.385 | 0.352
NCI-H1437 | 1.02 | 0.906 | 0.992 | 1.04 | 0.9 | 1.07 | 1 | 0.761 | 0.97 | 0.641 | 1.19 | 1.06 | 1.11 | 1.03 | 0.973 | 0.333 | 0.311 | 0.229 | 0.328 | 0.376
NCI-H1792 | 1 | 0.981 | 0.828 | 1.15 | 0.613 | 1.1 | 0.925 | 0.431 | 0.449 | 0.277 | 0.655 | 0.666 | 0.597 | 0.791 | 0.608 | 0.44 | 0.281 | 0.119 | 0.258 | 0.189
ChaGo-K-1 | 1.05 | 0.991 | 0.9 | 0.962 | 0.868 | 1.03 | 0.97 | 0.525 | 0.317 | 0.244 | 0.94 | 0.976 | 0.808 | 1.03 | 0.654 | 0.51 | 0.458 | 0.278 | 0.25 | 0.204
COR-L23 | 1.12 | 0.945 | 1.09 | 1.13 | 0.83 | 1.07 | 1.05 | 0.484 | 0.504 | 0.177 | 1.15 | 0.951 | 1.06 | 1.1 | 0.479 | 0.468 | 0.438 | 0.312 | 0.284 | 0.165
COR-L 105 | 0.895 | 0.836 | 0.949 | 0.939 | 0.888 | 1.03 | 0.952 | 0.831 | 1.15 | 0.873 | 0.863 | 0.673 | 0.761 | 0.997 | 0.75 | 0.581 | 0.488 | 0.314 | 0.575 | 0.53
LK-2 | 1.14 | 1 | 1.28 | 1.21 | 0.973 | 1 | 1.03 | 0.556 | 0.544 | 0.392 | 1.22 | 0.885 | 0.964 | 1.05 | 0.945 | 0.759 | 0.355 | 0.289 | 0.372 | 0.259
